Test results published in publication PMC7687369 (Antiviral Research, 2020).

Key:
SARS-CoV-2 [1] = type: cell-based; conditions: Vero E6-hTMPRSS2 cells
SARS-CoV-2 [2] = test: Viral replication assay in Vero E6-hTMPRSS2 cells; type: cell-based
SARS-CoV-2 [3] = type: cell-based
SARS-CoV = conditions: cited from earlier work
MERS-CoV = conditions: cited from earlier work

CNc1ccc2oc(C[C@H]3O[C@@]4(CC[C@H]3C)O[C@H]([C@H](C)C(=O)c3ccc[nH]3)[C@H](C)C[C@H]4C)nc2c1C(=O)O [Calcimycin]
selectivity between viral-induced cytopathogenicity and inhibition of cell viability (SARS-CoV-2 [1]): 18 fold

CCN(CCO)CCCC(C)Nc1ccnc2cc(Cl)ccc12 (stereo not drawn) [Hydroxychloroquine]
inhibition of viral replication (in words) (SARS-CoV-2 [2]): did not efficiently inhibit viral replication | antiviral activity, SARS-CoV-2 RNA (in words) (SARS-CoV-2 [3]): effective in wildtype Vero E6 cells at high micromolar concentrations | anti-viral activity in the cytopathogenic effect screen (in words) (SARS-CoV-2 [1]): negligible anti-viral activity

C[C@H](CCC(=O)O)C[C@H](C)C[C@H](C)C(=O)/C=C(\O)[C@H](C)C[C@H](C)C/C=C/[C@@H](C)[C@@H](O)[C@@H](C)[C@@H](O)C[C@@H]1CC[C@@](C)([C@H]2CC[C@@](C)([C@@H](C)O)O2)O1 [Ionomycin]
selectivity between viral-induced cytopathogenicity and inhibition of cell viability (SARS-CoV-2 [1]): 5 fold

CO[C@@H]1[C@@H](OC)[C@H](C)[C@@](O)(CC(=O)O)O[C@H]1[C@H](C)[C@H]1O[C@@]2(CC[C@@](C)([C@H]3CC[C@@](C)([C@@H]4O[C@@H]([C@H]5O[C@](C)(O)[C@H](C)C[C@@H]5C)C[C@@H]4O[C@@H]4C[C@H](OC)[C@@H](OC)[C@H](C)O4)O3)O2)C[C@H](O)[C@H]1C [Maduramycin]
selectivity between viral-induced cytopathogenicity and inhibition of cell viability (SARS-CoV-2 [1]): 313 fold

CC[C@@]1([C@@H]2O[C@@H]([C@H]3O[C@@](O)(CO)[C@H](C)C[C@@H]3C)C[C@@H]2C)CC[C@H]([C@]2(C)CC[C@]3(C[C@H](O)[C@@H](C)[C@@H]([C@@H](C)[C@@H](OC)[C@H](C)C(=O)O)O3)O2)O1 [Monensin]
inhibition of the cytopathogenic effect of SARS-CoV (SARS-CoV): but not SARS-CoV | inhibition of the cytopathogenic effect of MERS-CoV (MERS-CoV): could inhibit the cytopathogenic effect of MERS-CoV

CCC(CC)COC(=O)[C@H](C)N[P@](=O)(OC[C@H]1O[C@@](C#N)(c2ccc3c(N)ncnn23)[C@H](O)[C@@H]1O)Oc1ccccc1 [Remdesivir]
selectivity between viral-induced cytopathogenicity and inhibition of cell viability (SARS-CoV-2 [1]): > 67 fold

CC[C@@H](C(=O)[C@@H](C)[C@@H](O)[C@H](C)[C@@H]1O[C@@H]([C@@H](CC)C(=O)O)CC[C@@H]1C)[C@H]1O[C@]2(C=C[C@@H](O)[C@]3(CC[C@@](C)([C@H]4CC[C@](O)(CC)[C@H](C)O4)O3)O2)[C@H](C)C[C@@H]1C [Salinomycin]
inhibition of the cytopathogenic effect of SARS-CoV (SARS-CoV): but not SARS-CoV | inhibition of viral replication (in words) (SARS-CoV-2 [2]): potent inhibition | inhibition of the cytopathogenic effect of MERS-CoV (MERS-CoV): could inhibit the cytopathogenic effect of MERS-CoV
